Patent US8637484B2, “Modulation of growth hormone receptor expression and insulin-like growth factor expression” (Antisense Therapeutic Limited, priority 2003, dated 2014)
In the oligonucleotide strings, read from the 5' end, every base follows the letter of its sugar. An asterisk marks phosphorothioate; unmarked linkages are phosphodiester. Other units and linkages are bracketed, terminal groups are in braces. A string of capitals states the bases alone. e = 2'-O-(2-methoxyethyl) (MOE); [5mC] = 5-methylcytosine; d = 2'-deoxy (DNA)

The substances below were run on mouse growth hormone receptor mRNA (assay: Inhibition of mouse growth hormone receptor mRNA levels in b.END cells, quantitative real-time PCR). Details: mouse growth hormone receptor mRNA, b.END cells, averages from three experiments.
Assay type: cell-based
Parameters: % INHIB: concentration or dose not given beside the values
Procedure: The mouse brain endothelial cell line b.END was obtained from Dr. Werner Risau at the Max Plank Instititute (Bad Nauheim, Germany). b.END cells were routinely cultured in DMEM, high glucose (Gibco/Life Technologies, Gaithersburg, Md.) supplemented with 10% fetal calf serum (Gibco/Life Technologies, Gaithersburg, Md.). Cells were routinely passaged by trypsinization and dilution when they reached 90% confluence. Cells were seeded into 96-well plates (Falcon-Primaria #3872) at a density of 3000 cells/well for use in RT-PCR analysis.
When cells reached 65-75% confluency, they were treated with oligonucleotide. For cells grown in 96-well plates, wells were washed once with 100 μL OPTI-MEM™-1 reduced-serum medium (Invitrogen Corporation, Carlsbad, Calif.) and then treated with 130 μL of OPTI-MEM™-1 containing 3.75 μg/mL LIPOFECTIN™ (Invitrogen Corporation, Carlsbad, Calif.) and the desired concentration of oligonucleotide. Cells are treated and data are obtained in triplicate. After 4-7 hours of treatment at 37° C., the medium was replaced with fresh medium. Cells were harvested 16-24 hours after oligonucleotide treatment.
Total RNA was isolated using an RNEASY 96™ kit and buffers purchased from Qiagen Inc. (Valencia, Calif.) following the manufacturer's recommended procedures. Briefly, for cells grown on 96-well plates, growth medium was removed from the cells and each well was washed with 200 μL cold PBS. 150 μL Buffer RLT was added to each well and the plate vigorously agitated for 20 seconds. 150 μL of 70% ethanol was then added to each well and the contents mixed by pipetting three times up and down. The samples were then transferred to the RNEASY 96™ well plate attached to a QIAVAC™ manifold fitted with a waste collection tray and attached to a vacuum source. Vacuum was applied for 1 minute. 500 μL of Buffer RW1 was added to each well of the RNEASY 96™ plate and incubated for 15 minutes and the vacuum was again applied for 1 minute. An additional 500 μL of Buffer RW1 was added to each well of the RNEASY 96™ plate and the vacuum was applied for 2 minutes. 1 mL of Buffer RPE was then added to each well of the RNEASY 96™ plate and the vacuum applied for a period of 90 seconds. The Buffer RPE wash was then repeated and the vacuum was applied for an additional 3 minutes. The plate was then removed from the QIAVAC™ manifold and blotted dry on paper towels. The plate was then re-attached to the QIAVAC™ manifold fitted with a collection tube rack containing 1.2 mL collection tubes. RNA was then eluted by pipetting 140 μL of RNAse free water into each well, incubating 1 minute, and then applying the vacuum for 3 minutes.
Quantitation of growth hormone receptor mRNA levels was accomplished by real-time quantitative PCR using the ABI PRISM™ 7600, 7700, or 7900 Sequence Detection System (PE-Applied Biosystems, Foster City, Calif.) according to manufacturer's instructions. This is a closed-tube, non-gel-based, fluorescence detection system which allows high-throughput quantitation of polymerase chain reaction (PCR) products in real-time. As opposed to standard PCR in which amplification products are quantitated after the PCR is completed, products in real-time quantitative PCR are quantitated as they accumulate. This is accomplished by including in the PCR reaction an oligonucleotide probe that anneals specifically between the forward and reverse PCR primers, and contains two fluorescent dyes. A reporter dye (e.g., FAM or JOE, obtained from either PE-Applied Biosystems, Foster City, Calif., Operon Technologies Inc., Alameda, Calif. or Integrated DNA Technologies Inc., Coralville, Iowa) is attached to the 5′ end of the probe and a quencher dye (e.g., TAMRA, obtained from either PE-Applied Biosystems, Foster City, Calif., Operon Technologies Inc., Alameda, Calif. or Integrated DNA Technologies Inc., Coralville, Iowa) is attached to the 3′ end of the probe. […]

Compared with “227443 (antisense eT*eG*e[5mC]*eT*eT*dG*dG*d[5mC]*dA*dG*d[5mC]*dT*d[5mC]*dG*dT*eG*eG*eG*eT*eT) [compound 227443]”, “227444 (antisense eA*eT*eG*eG*e[5mC]*dT*dG*d[5mC]*dG*d[5mC]*d[5mC]*dT*dG*d[5mC]*dT*eT*eG*eG*e[5mC]*eA) [compound 227444]” is higher in “% INHIB” value: 0% for the first, 53% for the second.

Going from “227445 (antisense eT*eA*e[5mC]*e[5mC]*eT*dG*dA*dG*dA*d[5mC]*d[5mC]*dT*d[5mC]*dG*dG*eA*eG*eT*eT*eT) [compound 227445]” to “227446 (antisense eA*e[5mC]*eA*eA*eA*dG*dA*dT*d[5mC]*d[5mC]*dA*dT*dA*d[5mC]*d[5mC]*eT*eG*eA*eG*eA) [compound 227446]”, the “% INHIB” value rises from 69% to 87%.

Compared with “227447 (antisense eG*e[5mC]*eT*eG*eG*dT*dG*dT*dA*dG*d[5mC]*d[5mC]*dT*d[5mC]*dA*e[5mC]*eT*eT*e[5mC]*e[5mC]) [compound 227447]”, “227448 (antisense eT*eT*eT*eG*e[5mC]*d[5mC]*dA*dA*dG*dA*dG*dT*dA*dG*d[5mC]*eT*eG*eG*eT*eG) [compound 227448]” is lower in “% INHIB” value: 77% for the first, 60% for the second.

Compared with “227449 (antisense eA*e[5mC]*eG*eA*e[5mC]*dA*d[5mC]*dT*dT*dG*dG*dT*dG*dA*dA*eT*e[5mC]*eG*eA*eG) [compound 227449]”, “227450 (antisense eT*eG*eG*e[5mC]*eT*dT*dT*d[5mC]*d[5mC]*d[5mC]*dT*dT*dT*dT*dA*eG*e[5mC]*eA*eT*eA) [compound 227450]” is higher in “% INHIB” value: 69% for the first, 71% for the second.

First: 227451 (antisense eA*eT*eG*eA*eG*d[5mC]*dA*dA*dT*dT*d[5mC]*dT*dT*dG*d[5mC]*eA*eG*e[5mC]*eT*eT) [compound 227451]
Second: 227454 (antisense eA*eG*eT*eT*eG*dA*dA*dG*dT*dA*dA*d[5mC]*dA*dG*d[5mC]*eT*eG*eT*eT*eT) [compound 227454]
The “% INHIB” value of the first is lower: 49% for the first, 69% for the second.

First: 227455 (antisense eA*eG*eT*eA*eG*dG*dG*dT*dA*dT*d[5mC]*d[5mC]*dA*dA*dA*eT*eG*eG*eA*eG) [compound 227455]
Second: 227456 (antisense eG*eT*e[5mC]*e[5mC]*eA*dG*dT*dT*dG*dA*dG*dG*d[5mC]*d[5mC]*dA*eA*eT*eG*eG*eG) [compound 227456]
The “% INHIB” value of the first is lower: 43% for the first, 97% for the second.

Going from “227457 (antisense eG*eA*eA*eT*eT*dA*dT*d[5mC]*d[5mC]*dA*dT*d[5mC]*d[5mC]*d[5mC]*dT*eT*e[5mC]*eA*eG*eA) [compound 227457]” to “227458 (antisense eG*eT*eA*e[5mC]*eT*dG*dA*dA*dT*dT*dT*d[5mC]*dA*dT*dA*e[5mC]*eT*e[5mC]*e[5mC]*eA) [compound 227458]”, the “% INHIB” value rises from 67% to 75%.

First: 227459 (antisense e[5mC]*eT*eG*eA*eA*d[5mC]*dT*d[5mC]*dG*d[5mC]*dT*dG*dT*dA*d[5mC]*eT*eT*eT*eT*e[5mC]) [compound 227459]
Second: 227460 (antisense eA*eA*e[5mC]*eT*eG*dG*dA*dT*dA*dT*d[5mC]*dT*dT*d[5mC]*dT*eT*e[5mC]*eA*e[5mC]*eA) [compound 227460]
The “% INHIB” value of the first is higher: 60% for the first, 43% for the second.

First: 227461 (antisense eT*eG*e[5mC]*eT*eA*d[5mC]*dT*d[5mC]*d[5mC]*dA*dA*dA*dT*dA*dT*eT*e[5mC]*e[5mC]*eA*eA) [compound 227461]
Second: 227462 (antisense eG*e[5mC]*eT*eT*eT*dG*dA*dA*dA*dA*dT*dA*dT*dA*dA*e[5mC]*eT*eA*e[5mC]*eA) [compound 227462]
The “% INHIB” value of the first is higher: 75% for the first, 31% for the second.

Compared with “227463 (antisense eA*eT*e[5mC]*eA*eG*d[5mC]*dA*dT*d[5mC]*dT*dT*dA*dA*dT*d[5mC]*e[5mC]*eT*eT*eT*eG) [compound 227463]”, “227465 (antisense eT*eG*eA*eG*eA*dA*dG*dA*dT*d[5mC]*dT*dG*dG*dA*dT*e[5mC]*eA*eA*eT*e[5mC]) [compound 227465]” is higher in “% INHIB” value: 39% for the first, 51% for the second.

Going from “227466 (antisense eT*eT*eG*eT*eA*dG*dT*dT*dA*dT*d[5mC]*dA*dT*dG*dA*eA*eT*eG*e[5mC]*e[5mC]) [compound 227466]” to “227467 (antisense e[5mC]*eA*eT*e[5mC]*eA*dT*dT*dG*dT*dA*dG*dA*dA*dG*dT*e[5mC]*eG*eG*eG*eT) [compound 227467]”, the “% INHIB” value falls from 50% to 33%.

Going from “227470 (antisense e[5mC]*eT*e[5mC]*e[5mC]*eA*dA*dG*dG*dA*dT*dA*d[5mC]*d[5mC]*dA*dG*e[5mC]*eT*eG*eA*eT) [compound 227470]” to “227471 (antisense eA*eG*eG*e[5mC]*eA*d[5mC]*dA*dA*dG*dA*dG*dA*dT*d[5mC]*dA*eG*e[5mC]*eT*eT*e[5mC]) [compound 227471]”, the “% INHIB” value falls from 82% to 52%.

First: 227472 (antisense eA*eG*eA*eG*e[5mC]*d[5mC]*dA*dA*dG*dG*dG*dA*dA*dG*d[5mC]*eA*eT*e[5mC]*eA*eT) [compound 227472]
Second: 227473 (antisense eA*eA*eG*eT*e[5mC]*dA*dA*dT*dG*dT*dT*dT*dG*d[5mC]*d[5mC]*eA*eG*eT*eG*eA) [compound 227473]
The “% INHIB” value of the first is lower: 42% for the first, 71% for the second.

Going from “227474 (antisense eT*eG*eT*e[5mC]*eG*d[5mC]*dT*dT*dA*d[5mC]*dT*dT*dG*dG*dG*e[5mC]*eA*eT*eA*eA) [compound 227474]” to “227476 (antisense eG*eT*eA*eA*eT*dT*dT*dT*d[5mC]*dT*dT*dG*dG*d[5mC]*dA*eG*eG*eG*e[5mC]*eG) [compound 227476]”, the “% INHIB” value falls from 68% to 41%.

Compared with “227477 (antisense e[5mC]*eA*e[5mC]*eT*eG*dT*dT*d[5mC]*dA*dT*dG*d[5mC]*dT*dG*dT*eA*eA*eT*eT*eT) [compound 227477]”, “227478 (antisense eT*eT*eT*eT*eT*dG*dG*d[5mC]*dA*dT*d[5mC]*dT*dG*dA*d[5mC]*eT*e[5mC]*eA*e[5mC]*eA) [compound 227478]” is higher in “% INHIB” value: 61% for the first, 68% for the second.

Compared with “227479 (antisense eA*eT*eG*eT*e[5mC]*d[5mC]*dT*d[5mC]*dT*dT*dG*dG*dT*dT*dA*eA*eA*eG*e[5mC]*eT) [compound 227479]”, “227485 (antisense e[5mC]*eG*eT*eG*eG*dT*dG*dT*dA*dG*dT*d[5mC]*dT*dG*dG*eG*eA*e[5mC]*eA*eG) [compound 227485]” is lower in “% INHIB” value: 59% for the first, 45% for the second.

First: 227486 (antisense e[5mC]*eG*eG*eT*eG*dT*dG*dA*dA*d[5mC]*d[5mC]*dG*dT*dG*dG*eT*eG*eT*eA*eG) [compound 227486]
Second: 227487 (antisense eT*e[5mC]*eA*eG*eG*d[5mC]*dA*dA*dA*dG*dG*d[5mC]*dA*dA*dA*eG*e[5mC]*eA*eG*eT) [compound 227487]
The “% INHIB” value of the first is lower: 39% for the first, 44% for the second.

First: 227491 (antisense eT*eA*eG*eG*eA*dA*dA*dG*dG*d[5mC]*dT*dA*d[5mC]*dT*dG*e[5mC]*eA*eT*eG*eA) [compound 227491]
Second: 227492 (antisense eT*eA*eA*eA*eA*d[5mC]*dA*dT*dA*dG*dT*dT*dT*dT*dG*eG*eT*eT*eT*eA) [compound 227492]
The “% INHIB” value of the first is higher: 65% for the first, 7% for the second.

Going from “227493 (antisense eT*e[5mC]*e[5mC]*e[5mC]*eA*dA*d[5mC]*dA*d[5mC]*dA*dG*dA*dT*dT*dT*eA*eA*eA*eA*e[5mC]) [compound 227493]” to “227494 (antisense e[5mC]*eA*eA*eA*eA*dG*d[5mC]*d[5mC]*dA*d[5mC]*d[5mC]*dT*dG*dA*dT*eT*eG*eT*eT*eT) [compound 227494]”, the “% INHIB” value rises from 51% to 56%.

“227495 (antisense eT*e[5mC]*e[5mC]*eT*eG*dA*dA*d[5mC]*dT*dG*d[5mC]*dA*dA*dA*dA*eG*e[5mC]*e[5mC]*eA*e[5mC]) [compound 227495]” was tested, and the “% INHIB” value was 47%.
